Data: ChEMBL document CHEMBL1144136, “Anti-HIV-1 protease triterpenoid saponins from the seeds of Aesculus chinensis” (J Nat Prod, 1999)

biological target: Protease (Human immunodeficiency virus 1) (UniProt Q9YQ12); test: Inhibition of HIV1 protease at 100 uM
Sequence (Q9YQ12 as listed by the source): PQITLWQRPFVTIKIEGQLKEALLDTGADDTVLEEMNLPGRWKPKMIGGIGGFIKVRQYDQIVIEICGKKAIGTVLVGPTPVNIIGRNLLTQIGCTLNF

SMILES | inhibition [%]
C/C=C(/C)C(=O)OC[C@@]12[C@H](O)C[C@]3(C)C(=CC[C@@H]4[C@@]5(C)CC[C@H](O[C@@H]6O[C@H](C(=O)O)[C@@H](O[C@@H]7O[C@H](CO)[C@@H](O)[C@H](O)[C@H]7O)[C@H](O)[C@H]6O[C@@H]6O[C@H](CO)[C@@H](O)[C@H](O)[C@H]6O)[C@](C)(CO)[C@@H]5CC[C@]43C)[C@@H]1CC(C)(C)[C@@H](O)[C@@H]2O | 12.5
C/C=C(\C)C(=O)OC[C@@]12[C@H](O)C[C@]3(C)C(=CC[C@@H]4[C@@]5(C)CC[C@H](O[C@@H]6O[C@H](C(=O)O)[C@@H](O[C@@H]7O[C@H](CO)[C@@H](O)[C@H](O)[C@H]7O)[C@H](O)[C@H]6O[C@@H]6O[C@H](CO)[C@@H](O)[C@H](O)[C@H]6O)[C@](C)(CO)[C@@H]5CC[C@]43C)[C@@H]1CC(C)(C)[C@@H](O)[C@@H]2O | 15.9
C/C=C(\C)C(=O)O[C@H]1[C@H](O)[C@]2(COC(C)=O)[C@H](O)C[C@]3(C)C(=CC[C@@H]4[C@@]5(C)CC[C@H](O[C@@H]6O[C@H](C(=O)O)[C@@H](O[C@@H]7O[C@H](CO)[C@@H](O)[C@H](O)[C@H]7O)[C@H](O)[C@H]6O[C@@H]6O[C@H](CO)[C@@H](O)[C@H](O)[C@H]6O)[C@](C)(CO)[C@@H]5CC[C@]43C)[C@@H]2CC1(C)C | 39

The remaining lines, values ahead:

inhibition [%] | SMILES
14.7 | C/C=C(/C)C(=O)O[C@H]1[C@H](O)[C@]2(COC(C)=O)[C@H](O)C[C@]3(C)C(=CC[C@@H]4[C@@]5(C)CC[C@H](O[C@@H]6O[C@H](C(=O)O)[C@@H](O[C@@H]7O[C@H](CO)[C@@H](O)[C@H](O)[C@H]7O)[C@H](O)[C@H]6O[C@@H]6O[C@H](CO)[C@@H](O)[C@H](O)[C@H]6O)[C@](C)(CO)[C@@H]5CC[C@]43C)[C@@H]2CC1(C)C
34 | C/C=C(/C)C(=O)O[C@H]1[C@H](O)C(C)(C)C[C@H]2C3=CC[C@@H]4[C@@]5(C)CC[C@H](O[C@@H]6O[C@H](C(=O)O)[C@@H](O[C@@H]7O[C@H](CO)[C@@H](O)[C@H](O)[C@H]7O)[C@H](O)[C@H]6O[C@@H]6O[C@H](CO)[C@@H](O)[C@H](O)[C@H]6O)[C@](C)(CO)[C@@H]5CC[C@@]4(C)[C@]3(C)C[C@@H](O)[C@]21COC(C)=O
35.2 | C/C=C(\C)C(=O)O[C@H]1[C@H](O)C(C)(C)C[C@H]2C3=CC[C@@H]4[C@@]5(C)CC[C@H](O[C@@H]6O[C@H](C(=O)O)[C@@H](O[C@@H]7O[C@H](CO)[C@@H](O)[C@H](O)[C@H]7O)[C@H](O)[C@H]6O[C@@H]6O[C@H](CO)[C@@H](O)[C@H](O)[C@H]6O)[C@](C)(CO)[C@@H]5CC[C@@]4(C)[C@]3(C)C[C@@H](O)[C@]21COC(C)=O

biological target: Protease (Human immunodeficiency virus 1, UniProt Q9YQ12); test: Inhibition of HIV1 protease
Sequence (Q9YQ12 whole entry): as the sequence (Q9YQ12 as listed by the source) above

SMILES | IC50 [µM]
C/C=C(\C)C(=O)O[C@H]1[C@H](OC(C)=O)[C@]2(CO)[C@H](O)C[C@]3(C)C(=CC[C@@H]4[C@@]5(C)CC[C@H](O[C@@H]6O[C@H](C(=O)O)[C@@H](O[C@@H]7O[C@H](CO)[C@@H](O)[C@H](O)[C@H]7O)[C@H](O)[C@H]6O[C@@H]6O[C@H](CO)[C@@H](O)[C@H](O)[C@H]6O)[C@](C)(CO)[C@@H]5CC[C@]43C)[C@@H]2CC1(C)C [ESCIN IA] | 35
C/C=C(/C)C(=O)O[C@H]1[C@H](OC(C)=O)[C@]2(CO)[C@H](O)C[C@]3(C)C(=CC[C@@H]4[C@@]5(C)CC[C@H](O[C@@H]6O[C@H](C(=O)O)[C@@H](O[C@@H]7O[C@H](CO)[C@@H](O)[C@H](O)[C@H]7O)[C@H](O)[C@H]6O[C@@H]6O[C@H](CO)[C@@H](O)[C@H](O)[C@H]6O)[C@](C)(CO)[C@@H]5CC[C@]43C)[C@@H]2CC1(C)C [ESCIN IB] | 50
